# Measured values taken from the kinase profiling compilation of Christmann-Franck et al. (2016).
# Several values for one entry are separate records, joined by “and”; a condition that tells them apart may be missing. Identical values can stand only once.
# Tests used:
# Assay in all cases: radiometric filter-binding kinase assay
# [1] = target: MAPK10 (human) (UniProt P53779); settings: compound 100.0 µM; ATP 20 µM
# [2] = target: IKBKE (human) (UniProt Q14164); settings: compound 100.0 µM; ATP 50 µM
# [3] = target: MARK2 (human) (UniProt Q7KZI7); settings: compound 100.0 µM; ATP 20 µM
# [4] = target: MAPK1 (human) (UniProt P28482); settings: compound 100.0 µM; ATP 20 µM
# [5] = target: MARK3 (human) (UniProt P27448); settings: compound 100.0 µM; ATP 5 µM
# [6] = target: MAP3K9 (human) (UniProt P80192); settings: compound 100.0 µM; ATP 20 µM
# [7] = target: NTRK1 (human) (UniProt P04629); settings: compound 100.0 µM; ATP 20 µM
# [8] = target: HIPK2 (human) (UniProt Q9H2X6); settings: compound 100.0 µM; ATP 5 µM
# [9] = target: PKN2 (human) (UniProt Q16513); settings: compound 100.0 µM; ATP 5 µM
# [10] = target: MAP3K5 (human) (UniProt Q99683); settings: compound 100.0 µM; ATP 50 µM
# [11] = target: PRKACA (human) (UniProt P17612); settings: compound 100.0 µM; ATP 20 µM
# [12] = target: MAPK15 (human) (UniProt Q8TD08); settings: compound 100.0 µM; ATP 5 µM
# [13] = target: MAPK9 (human) (UniProt P45984); settings: compound 100.0 µM; ATP 20 µM
# [14] = target: INSR (human) (UniProt P06213); settings: compound 100.0 µM; ATP 20 µM
# [15] = target: MAP2K6 (human) (UniProt P52564); settings: compound 100.0 µM; ATP 50 µM
# [16] = target: MAP3K1 (human) (UniProt Q13233); settings: compound 100.0 µM; ATP 50 µM
# [17] = target: EPHA2 (human) (UniProt P29317); settings: compound 100.0 µM; ATP 50 µM
# [18] = target: NUAK1 (human) (UniProt O60285); settings: compound 100.0 µM; ATP 20 µM
# [19] = target: DYRK1A (human) (UniProt Q13627); settings: compound 100.0 µM; ATP 50 µM
# [20] = target: HIPK3 (human) (UniProt Q9H422); settings: compound 100.0 µM; ATP 20 µM
# [21] = target: BRSK1 (human) (UniProt Q8TDC3); settings: compound 100.0 µM; ATP 20 µM
# [22] = target: SYK (human) (UniProt P43405); settings: compound 100.0 µM; ATP 20 µM
# [23] = target: EPHB1 (human) (UniProt P54762); settings: compound 100.0 µM; ATP 20 µM
# [24] = target: EPHB2 (human) (UniProt P29323); settings: compound 100.0 µM; ATP 20 µM
# [25] = target: ZAP70 (human) (UniProt P43403); settings: compound 100.0 µM; ATP 5 µM
# [26] = target: PRKCZ (human) (UniProt Q05513); settings: compound 100.0 µM; ATP 5 µM
# [27] = test system: LCK (mouse); settings: compound 100.0 µM; ATP 50 µM; accession and sequence are those of the human protein
# [28] = target: INSRR (human) (UniProt P14616); settings: compound 100.0 µM; ATP 5 µM
# [29] = target: BTK (human) (UniProt Q06187); settings: compound 100.0 µM; ATP 50 µM
# [30] = target: RPS6KA5 KD1 KD2 (human) (UniProt O75582); settings: compound 100.0 µM; ATP 20 µM
# [31] = target: DAPK1 (human) (UniProt P53355); settings: compound 100.0 µM; ATP 5 µM
# [32] = target: RPS6KA3 KD1 KD2 (human) (UniProt P51812); settings: compound 100.0 µM; ATP 50 µM
# [33] = target: TAOK1 (human) (UniProt Q7L7X3); settings: compound 100.0 µM; ATP 20 µM
# [34] = target: FGFR1 (human) (UniProt P11362); settings: compound 100.0 µM; ATP 20 µM
# [35] = target: MAPK3 (human) (UniProt P27361); settings: compound 100.0 µM; ATP 5 µM
# Sequence of MAPK3 (human) (P27361 whole entry, looked up): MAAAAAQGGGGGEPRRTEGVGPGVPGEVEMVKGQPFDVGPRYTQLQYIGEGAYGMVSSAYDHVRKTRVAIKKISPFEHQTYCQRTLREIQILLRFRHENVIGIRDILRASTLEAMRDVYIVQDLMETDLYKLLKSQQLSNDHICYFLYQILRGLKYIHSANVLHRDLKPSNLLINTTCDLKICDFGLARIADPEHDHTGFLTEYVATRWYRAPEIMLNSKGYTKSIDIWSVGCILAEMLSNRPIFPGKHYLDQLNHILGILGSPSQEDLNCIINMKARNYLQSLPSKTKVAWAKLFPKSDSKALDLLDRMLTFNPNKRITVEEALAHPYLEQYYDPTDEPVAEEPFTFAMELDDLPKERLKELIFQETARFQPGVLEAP
# Sequence of FGFR1 (human) (P11362 whole entry, looked up): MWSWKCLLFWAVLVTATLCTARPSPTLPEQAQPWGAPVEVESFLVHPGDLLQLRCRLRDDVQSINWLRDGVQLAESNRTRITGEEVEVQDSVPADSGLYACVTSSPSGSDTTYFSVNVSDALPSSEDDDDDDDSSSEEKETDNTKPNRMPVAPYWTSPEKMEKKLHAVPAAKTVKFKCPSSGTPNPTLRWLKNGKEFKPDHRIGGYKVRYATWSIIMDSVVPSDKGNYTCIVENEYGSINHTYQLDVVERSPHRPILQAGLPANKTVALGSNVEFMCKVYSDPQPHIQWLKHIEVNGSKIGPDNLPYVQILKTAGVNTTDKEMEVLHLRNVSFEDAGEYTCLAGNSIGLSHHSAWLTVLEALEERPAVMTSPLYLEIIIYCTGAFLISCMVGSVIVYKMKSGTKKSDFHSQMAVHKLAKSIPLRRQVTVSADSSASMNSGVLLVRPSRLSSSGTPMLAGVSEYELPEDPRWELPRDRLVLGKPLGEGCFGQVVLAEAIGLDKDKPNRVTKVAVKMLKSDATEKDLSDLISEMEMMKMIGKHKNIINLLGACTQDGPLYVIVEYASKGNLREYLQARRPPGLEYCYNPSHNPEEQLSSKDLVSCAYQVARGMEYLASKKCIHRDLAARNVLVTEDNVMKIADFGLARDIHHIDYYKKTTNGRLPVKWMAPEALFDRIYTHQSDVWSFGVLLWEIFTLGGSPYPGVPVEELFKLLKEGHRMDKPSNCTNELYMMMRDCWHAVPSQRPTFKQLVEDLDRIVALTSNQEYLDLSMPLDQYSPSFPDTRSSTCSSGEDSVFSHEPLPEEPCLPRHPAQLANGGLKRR
# Sequence of MAPK10 (human) (P53779 whole entry, looked up): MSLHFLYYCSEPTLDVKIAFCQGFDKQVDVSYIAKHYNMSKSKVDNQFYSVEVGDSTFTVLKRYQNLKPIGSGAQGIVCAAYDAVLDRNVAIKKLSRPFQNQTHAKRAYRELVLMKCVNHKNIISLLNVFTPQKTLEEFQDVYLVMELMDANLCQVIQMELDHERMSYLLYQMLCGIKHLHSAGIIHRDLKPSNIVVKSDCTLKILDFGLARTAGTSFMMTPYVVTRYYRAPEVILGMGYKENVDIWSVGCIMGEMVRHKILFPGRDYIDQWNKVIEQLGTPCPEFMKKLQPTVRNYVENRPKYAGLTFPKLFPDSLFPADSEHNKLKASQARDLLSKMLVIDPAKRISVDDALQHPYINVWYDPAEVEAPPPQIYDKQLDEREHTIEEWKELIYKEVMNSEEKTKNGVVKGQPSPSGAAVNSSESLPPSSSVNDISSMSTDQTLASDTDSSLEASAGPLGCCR
# Sequence of HIPK3 (human) (Q9H422 whole entry, looked up): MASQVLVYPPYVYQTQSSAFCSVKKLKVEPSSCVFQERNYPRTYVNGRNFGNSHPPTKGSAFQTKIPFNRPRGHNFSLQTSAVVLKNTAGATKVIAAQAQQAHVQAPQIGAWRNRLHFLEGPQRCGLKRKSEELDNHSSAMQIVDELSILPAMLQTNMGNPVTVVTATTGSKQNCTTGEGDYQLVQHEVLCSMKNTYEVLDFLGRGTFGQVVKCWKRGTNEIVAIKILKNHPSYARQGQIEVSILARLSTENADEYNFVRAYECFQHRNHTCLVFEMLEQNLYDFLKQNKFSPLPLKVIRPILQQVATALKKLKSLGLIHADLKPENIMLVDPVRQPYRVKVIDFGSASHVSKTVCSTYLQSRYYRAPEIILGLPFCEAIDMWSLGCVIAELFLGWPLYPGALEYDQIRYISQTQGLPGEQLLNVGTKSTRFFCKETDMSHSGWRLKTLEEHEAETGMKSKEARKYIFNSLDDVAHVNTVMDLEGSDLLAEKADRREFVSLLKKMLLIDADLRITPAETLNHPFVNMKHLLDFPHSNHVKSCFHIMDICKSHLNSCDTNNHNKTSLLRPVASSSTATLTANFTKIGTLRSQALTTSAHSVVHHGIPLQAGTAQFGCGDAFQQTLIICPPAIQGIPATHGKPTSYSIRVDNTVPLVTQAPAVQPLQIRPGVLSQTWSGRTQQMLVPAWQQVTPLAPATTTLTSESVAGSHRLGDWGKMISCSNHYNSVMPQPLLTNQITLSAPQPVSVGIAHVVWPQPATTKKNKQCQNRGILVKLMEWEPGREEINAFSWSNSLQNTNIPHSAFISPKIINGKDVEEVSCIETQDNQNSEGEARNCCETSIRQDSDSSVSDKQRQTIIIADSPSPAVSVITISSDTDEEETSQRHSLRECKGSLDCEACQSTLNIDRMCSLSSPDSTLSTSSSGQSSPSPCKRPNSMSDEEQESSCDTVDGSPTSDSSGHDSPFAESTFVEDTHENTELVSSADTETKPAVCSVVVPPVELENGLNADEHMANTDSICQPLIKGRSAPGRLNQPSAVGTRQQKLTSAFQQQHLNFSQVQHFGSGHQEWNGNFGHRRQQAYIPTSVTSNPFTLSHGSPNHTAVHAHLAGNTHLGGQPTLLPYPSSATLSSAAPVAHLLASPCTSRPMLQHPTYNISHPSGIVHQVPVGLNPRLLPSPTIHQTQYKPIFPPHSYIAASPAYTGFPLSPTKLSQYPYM
# Sequence of MAPK1 (human) (P28482 whole entry, looked up): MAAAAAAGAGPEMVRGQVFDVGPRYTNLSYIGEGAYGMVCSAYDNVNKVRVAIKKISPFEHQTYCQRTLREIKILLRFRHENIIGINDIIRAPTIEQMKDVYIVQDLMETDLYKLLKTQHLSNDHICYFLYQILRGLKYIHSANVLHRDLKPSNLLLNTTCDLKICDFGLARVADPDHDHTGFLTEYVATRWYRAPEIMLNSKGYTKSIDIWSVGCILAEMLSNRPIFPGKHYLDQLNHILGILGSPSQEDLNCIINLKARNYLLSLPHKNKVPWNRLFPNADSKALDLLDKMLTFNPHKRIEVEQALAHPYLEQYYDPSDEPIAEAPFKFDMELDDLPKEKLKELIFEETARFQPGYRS
# Sequence of RPS6KA5 KD1 KD2 (human) (O75582 whole entry, looked up): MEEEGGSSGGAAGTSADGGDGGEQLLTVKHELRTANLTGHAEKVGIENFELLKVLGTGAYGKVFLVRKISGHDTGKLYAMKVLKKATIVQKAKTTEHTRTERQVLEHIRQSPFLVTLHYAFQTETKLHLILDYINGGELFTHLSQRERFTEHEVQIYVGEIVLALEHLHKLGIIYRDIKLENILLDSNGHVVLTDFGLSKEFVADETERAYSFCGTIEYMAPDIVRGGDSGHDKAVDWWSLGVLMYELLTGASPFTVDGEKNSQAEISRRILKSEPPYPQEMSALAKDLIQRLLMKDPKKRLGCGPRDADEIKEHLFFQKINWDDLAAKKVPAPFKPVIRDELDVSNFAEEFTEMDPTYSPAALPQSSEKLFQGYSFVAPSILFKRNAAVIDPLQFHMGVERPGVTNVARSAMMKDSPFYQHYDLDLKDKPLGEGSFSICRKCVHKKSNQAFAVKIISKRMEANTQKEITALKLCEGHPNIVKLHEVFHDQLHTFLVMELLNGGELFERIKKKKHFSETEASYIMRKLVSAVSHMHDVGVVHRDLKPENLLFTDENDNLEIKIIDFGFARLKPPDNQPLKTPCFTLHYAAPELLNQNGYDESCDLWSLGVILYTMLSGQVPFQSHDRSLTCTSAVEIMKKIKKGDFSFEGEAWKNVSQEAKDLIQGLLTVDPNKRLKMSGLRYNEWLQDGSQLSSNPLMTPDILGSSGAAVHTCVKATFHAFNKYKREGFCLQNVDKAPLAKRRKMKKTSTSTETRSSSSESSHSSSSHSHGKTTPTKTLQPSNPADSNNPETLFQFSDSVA
# Sequence of RPS6KA3 KD1 KD2 (human) (P51812 whole entry, looked up): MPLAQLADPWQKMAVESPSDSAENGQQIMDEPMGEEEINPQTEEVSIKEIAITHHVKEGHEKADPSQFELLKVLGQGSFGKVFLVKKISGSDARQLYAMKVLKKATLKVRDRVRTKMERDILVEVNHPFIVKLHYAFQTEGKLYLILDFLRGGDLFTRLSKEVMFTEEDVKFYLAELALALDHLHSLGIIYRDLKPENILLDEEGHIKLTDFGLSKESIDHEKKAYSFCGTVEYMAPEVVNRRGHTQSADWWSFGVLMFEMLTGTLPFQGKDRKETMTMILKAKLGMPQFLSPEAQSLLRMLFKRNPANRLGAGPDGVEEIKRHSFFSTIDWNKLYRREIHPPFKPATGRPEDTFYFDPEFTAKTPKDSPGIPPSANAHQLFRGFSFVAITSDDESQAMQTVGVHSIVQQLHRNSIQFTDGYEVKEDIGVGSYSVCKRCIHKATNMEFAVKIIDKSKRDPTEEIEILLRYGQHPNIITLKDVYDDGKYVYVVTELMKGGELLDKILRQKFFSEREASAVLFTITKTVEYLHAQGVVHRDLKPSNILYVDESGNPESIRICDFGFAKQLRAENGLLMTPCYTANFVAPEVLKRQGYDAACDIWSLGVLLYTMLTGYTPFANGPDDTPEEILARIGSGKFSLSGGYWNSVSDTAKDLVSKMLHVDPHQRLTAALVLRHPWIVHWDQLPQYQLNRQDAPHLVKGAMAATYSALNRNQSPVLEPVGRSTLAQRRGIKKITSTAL
SMILES,inhibition [1] [%],inhibition [2] [%],inhibition [3] [%],inhibition [4] [%],inhibition [5] [%],inhibition [6] [%],inhibition [7] [%],inhibition [8] [%],inhibition [9] [%],inhibition [10] [%],inhibition [11],inhibition [12] [%],inhibition [13] [%],inhibition [14] [%],inhibition [15] [%],inhibition [16] [%],inhibition [17] [%],inhibition [18] [%],inhibition [19] [%],inhibition [20] [%],also measured
CC(=O)Nc1nc2cnc(-c3ccccc3)cn2n1,11,23,18,7,38,43,28,49,13,25,0%,88,1,60,0,9,0,33,43,0,inhibition [21]: 23%; inhibition [22]: 31%; inhibition [23]: 22%; inhibition [24]: 4%; inhibition [25]: 16%; inhibition [26]: 11%; inhibition [27]: 29%; inhibition [28]: 60%; inhibition [29]: 28%; inhibition [30]: 11%; inhibition [31]: 12%; inhibition [32]: 9%; inhibition [33]: 0%; inhibition [34]: 45%; inhibition [35]: 13%
CC(C)(C)Nc1c(COCc2ccccc2)nc2[nH]cnn12,0,0,13,0,13,14,6,18,16,2,0% and 21%,1,10,4,1,0,0,20,30,1,inhibition [21]: 0%; inhibition [22]: 12%; inhibition [23]: 0%; inhibition [24]: 1%; inhibition [25]: 0%; inhibition [26]: 0%; inhibition [27]: 5%; inhibition [28]: 4%; inhibition [29]: 51%; inhibition [30]: 0%; inhibition [31]: 14%; inhibition [32]: 48%; inhibition [33]: 0%; inhibition [34]: 40%; inhibition [35]: 1%
Cc1cccc(C)c1-c1cn2nc(N)nc2cn1,17,28,0,14,0,18,8,8,93,15,0% and 19%,25,0,24,8,17,11,28,19,7,inhibition [21]: 14%; inhibition [22]: 26%; inhibition [23]: 22%; inhibition [24]: 0%; inhibition [25]: 0%; inhibition [26]: 6%; inhibition [27]: 37%; inhibition [28]: 24%; inhibition [29]: 44%; inhibition [30]: 6%; inhibition [31]: 0%; inhibition [32]: 42%; inhibition [33]: 12%; inhibition [34]: 42%; inhibition [35]: 31%
COc1ccc(NC(=S)Nc2cnc3[nH]cnn3c2=O)cn1,0,0,0,13,17,0,0,1,1,16,0% and 14%,8,5,0,0,0,0,0,10,0,inhibition [21]: 10%; inhibition [22]: 9%; inhibition [23]: 1%; inhibition [24]: 22%; inhibition [25]: 23%; inhibition [26]: 0%; inhibition [27]: 0%; inhibition [28]: 0%; inhibition [29]: 25%; inhibition [30]: 28%; inhibition [31]: 5%; inhibition [32]: 47%; inhibition [33]: 0%; inhibition [34]: 25%; inhibition [35]: 0%
